# From ChEMBL document CHEMBL2062370, “Identification of glycogen synthase kinase-3 inhibitors with a selective sting for glycogen synthase kinase-3α” (J Med Chem, 2012)
# Experiments:
# Danio rerio = organism: Danio rerio; assay: Toxicity in wild type zebrafish embryo assessed as mortality up to 30 uM treated 5 hrs after post fertilization measured 5 days after post fertilization by microscopy; type: organism-based; details: in vivo, 120 h
# [1] = target: Glycogen synthase kinase-3 beta (Homo sapiens, UniProt P49841); assay: Inhibition of human recombinant GSK3beta
# Chain of Glycogen synthase kinase-3 beta (P49841 whole entry): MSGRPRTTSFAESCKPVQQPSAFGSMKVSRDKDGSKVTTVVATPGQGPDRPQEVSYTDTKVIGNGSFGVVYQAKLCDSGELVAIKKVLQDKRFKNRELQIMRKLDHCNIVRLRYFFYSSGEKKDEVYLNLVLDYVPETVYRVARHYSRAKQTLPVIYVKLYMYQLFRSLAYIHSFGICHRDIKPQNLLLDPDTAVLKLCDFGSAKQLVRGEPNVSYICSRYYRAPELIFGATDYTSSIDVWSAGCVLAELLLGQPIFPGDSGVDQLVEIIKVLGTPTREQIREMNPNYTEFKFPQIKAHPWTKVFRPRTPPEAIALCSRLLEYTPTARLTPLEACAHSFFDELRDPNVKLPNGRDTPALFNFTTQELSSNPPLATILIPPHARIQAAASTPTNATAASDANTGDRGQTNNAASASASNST
# [2] = target: Glycogen synthase kinase-3 alpha (Homo sapiens, UniProt P49840); assay: Inhibition of human recombinant GSK3alpha
# Chain of Glycogen synthase kinase-3 alpha (P49840 whole entry): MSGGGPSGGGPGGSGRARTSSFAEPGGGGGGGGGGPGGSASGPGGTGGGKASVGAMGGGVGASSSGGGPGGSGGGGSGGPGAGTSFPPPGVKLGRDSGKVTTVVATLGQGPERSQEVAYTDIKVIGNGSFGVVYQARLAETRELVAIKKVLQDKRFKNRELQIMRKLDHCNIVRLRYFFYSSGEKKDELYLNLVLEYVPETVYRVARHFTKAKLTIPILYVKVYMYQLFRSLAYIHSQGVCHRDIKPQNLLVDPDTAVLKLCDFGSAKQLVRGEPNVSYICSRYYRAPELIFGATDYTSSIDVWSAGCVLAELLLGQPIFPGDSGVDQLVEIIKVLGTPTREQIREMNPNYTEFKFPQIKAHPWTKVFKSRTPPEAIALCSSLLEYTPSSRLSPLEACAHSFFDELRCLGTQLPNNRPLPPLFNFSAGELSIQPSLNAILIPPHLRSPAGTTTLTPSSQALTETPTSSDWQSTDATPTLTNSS
# [3] = target: Cyclin-dependent kinase 5/CDK5 activator 1 (Homo sapiens, UniProt Q00535); assay: Inhibition of human recombinant CDK5/p35 by FRET assay; type: protein-complex assay
# Chain of Cyclin-dependent kinase 5/CDK5 activator 1 (Q00535 whole entry): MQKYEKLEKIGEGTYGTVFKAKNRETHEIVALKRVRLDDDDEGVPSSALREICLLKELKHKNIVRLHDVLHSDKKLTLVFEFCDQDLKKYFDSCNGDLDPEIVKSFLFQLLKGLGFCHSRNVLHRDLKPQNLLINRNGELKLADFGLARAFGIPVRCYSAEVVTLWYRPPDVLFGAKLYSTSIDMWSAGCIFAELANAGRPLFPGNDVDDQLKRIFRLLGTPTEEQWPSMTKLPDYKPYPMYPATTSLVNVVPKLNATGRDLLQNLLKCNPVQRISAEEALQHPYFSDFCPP
# Chain of Cyclin-dependent kinase 5/CDK5 activator 1 (Q15078 whole entry, further chain): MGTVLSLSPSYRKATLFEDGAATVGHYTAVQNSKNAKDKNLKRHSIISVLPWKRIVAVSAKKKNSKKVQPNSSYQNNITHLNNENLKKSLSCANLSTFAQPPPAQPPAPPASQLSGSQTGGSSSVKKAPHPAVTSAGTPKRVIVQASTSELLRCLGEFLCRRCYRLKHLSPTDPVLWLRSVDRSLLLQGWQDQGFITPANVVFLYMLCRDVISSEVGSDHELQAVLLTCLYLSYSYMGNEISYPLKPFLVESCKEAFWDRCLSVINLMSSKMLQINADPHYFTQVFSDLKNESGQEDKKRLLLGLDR
# [4] = target: Protein kinase C alpha type (Homo sapiens, UniProt P17252); assay: Inhibition of human recombinant PKCalpha by FRET assay
# [5] = target: Casein kinase I isoform epsilon (Homo sapiens, UniProt P49674); assay: Inhibition of human recombinant CK1epsilon by FRET assay
# Chain of Casein kinase I isoform epsilon (P49674 whole entry, canonical isoform): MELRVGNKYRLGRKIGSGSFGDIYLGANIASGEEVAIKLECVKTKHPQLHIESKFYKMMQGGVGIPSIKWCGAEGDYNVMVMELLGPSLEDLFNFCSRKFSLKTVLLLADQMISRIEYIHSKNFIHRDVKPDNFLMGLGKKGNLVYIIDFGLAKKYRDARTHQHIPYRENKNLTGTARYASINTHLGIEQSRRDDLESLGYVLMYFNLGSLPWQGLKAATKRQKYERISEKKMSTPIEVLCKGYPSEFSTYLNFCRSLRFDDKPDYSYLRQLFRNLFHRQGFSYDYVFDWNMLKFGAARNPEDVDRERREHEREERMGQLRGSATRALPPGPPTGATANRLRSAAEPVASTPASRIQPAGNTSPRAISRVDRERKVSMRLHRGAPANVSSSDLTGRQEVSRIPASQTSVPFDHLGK
# Aurora kinase A = target: T1, Aurora kinase A (Homo sapiens, UniProt O14965); assay: Inhibition of human recombinant AurKA by FRET assay
# T1 sequence (O14965 whole entry): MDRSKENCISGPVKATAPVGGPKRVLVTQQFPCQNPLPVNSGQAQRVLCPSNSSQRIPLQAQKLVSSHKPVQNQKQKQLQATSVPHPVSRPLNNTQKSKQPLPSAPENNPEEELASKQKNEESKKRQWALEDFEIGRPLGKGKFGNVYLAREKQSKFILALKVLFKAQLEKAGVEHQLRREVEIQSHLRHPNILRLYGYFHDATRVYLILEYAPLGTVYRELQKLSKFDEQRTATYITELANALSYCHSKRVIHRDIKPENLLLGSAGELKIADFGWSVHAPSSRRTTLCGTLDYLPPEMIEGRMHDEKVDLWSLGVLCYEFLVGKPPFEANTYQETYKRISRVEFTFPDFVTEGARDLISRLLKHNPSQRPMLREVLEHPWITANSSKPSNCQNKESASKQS
# Liver microsomes = assay: Metabolic stability in human liver microsomes after 60 mins by HPLC MS/ Mass spectroscopic analysis; type: ADME, Microsome; details: 1 h
# Caco-2 = assay: Permeability from apical to basolateral side of human Caco2 cells at pH 6.5/7.4 after 60 mins by HPLC MS/ Mass spectroscopic analysis; type: ADME, cell-based; details: caco-2, pH 6.5, 1 h
# [6] = Aqueous solubility of the compound at 200 uM at pH 7.4 in phosphate buffer saline after 24 hrs by HPLC-UV/VIS spectroscopic analysis; type: physicochemical; details: pH 7.4, 24 h
# [7] = Octanol-phosphate buffer partition coefficient, log D of the compound at 100 uM at pH 7.4 after 60 mins by HPLC-UV/VIS spectroscopic analysis; type: physicochemical
structure (smiles),measurement,setting,value
c1cc(-c2nnn[nH]2)ccc1CSc1nnc(-c2ccc3c(c2)OCO3)o1,Activity,Danio rerio,Non-toxic
same,IC50,[1],0.172 µM
same,IC50,[2],0.107 µM
c1ccc(CSc2nnc(-c3ccncc3)o2)cc1,Activity,Danio rerio,Non-toxic
same,IC50,[1],1.32 µM
same,IC50,[2],2.24 µM
CC(C)CNC(=O)c1ccc(CSc2nnc(-c3ccc4c(c3)OCCO4)o2)cc1,Activity,Danio rerio,Non-toxic
N#Cc1cc(F)ccc1-c1ccc(CSc2nnc(-c3ccc4c(c3)OCCO4)o2)cc1,Activity,Danio rerio,Non-toxic
same,IC50,[3],> 100 µM
same,IC50,[4],> 100 µM
same,IC50,[5],> 100 µM
same,IC50,Aurora kinase A,5 µM
N#Cc1ccccc1-c1ccc(CSc2nnc(-c3ccncc3)o2)cc1,Activity,Danio rerio,Non-toxic
same,IC50,[3],> 100 µM
same,IC50,[4],> 100 µM
same,IC50,[5],> 100 µM
same,IC50,[1],0.041 µM
same,IC50,Aurora kinase A,> 100 µM
same,IC50,[2],0.019 µM
O=C(O)c1ccc(CSc2nnc(-c3ccc4c(c3)OCO4)o2)cc1,Activity,Danio rerio,Non-toxic
COC[C@@H]1COc2ccc(-c3nnc(SCc4ccc(-c5ccccc5C#N)cc4)o3)cc2O1,Activity,Danio rerio,Non-toxic
same,IC50,[3],> 100 µM
same,IC50,[4],> 100 µM
same,IC50,[5],> 100 µM
same,IC50,[1],0.758 µM
same,IC50,Aurora kinase A,> 100 µM
same,IC50,[2],0.195 µM
COCC1COc2ccc(-c3nnc(SCc4ccc(-c5ccccc5C#N)cc4)o3)cc2O1 (racemic),Activity,Danio rerio,Non-toxic
same,IC50,[3],> 100 µM
same,IC50,[4],> 100 µM
same,IC50,[5],> 100 µM
same,IC50,[1],0.233 µM
same,IC50,Aurora kinase A,30 µM
same,IC50,[2],0.054 µM
N#Cc1cccc(CSc2nnc(-c3ccc4c(c3)OCO4)o2)c1,Activity,Danio rerio,Non-toxic
same,IC50,[1],0.065 µM
same,IC50,[2],0.015 µM
Ic1cccc(CSc2nnc(-c3ccncc3)o2)c1,Activity,Danio rerio,Non-toxic
same,IC50,[2],0.39 µM
N#Cc1cccc(CSc2nnc(-c3ccncc3)o2)c1,Activity,Danio rerio,Non-toxic
same,IC50,[1],3.16 µM
same,IC50,[2],3.21 µM
N#Cc1cc(F)ccc1-c1ccc(CSc2nnc(-c3ccc4c(c3)OCO4)o2)cc1,Activity,Danio rerio,Non-toxic
same,IC50,[3],> 100 µM
same,IC50,[4],> 100 µM
same,IC50,[5],20 µM
same,IC50,[1],0.022 µM
same,IC50,Aurora kinase A,30 µM
same,IC50,[2],0.003 µM
N#Cc1ccccc1-c1ccc(CSc2nnc(-c3ccc4c(c3)OCCO4)o2)cc1,Activity,Danio rerio,Non-toxic
same,IC50,[3],> 100 µM
same,IC50,[4],> 100 µM
same,IC50,[5],> 100 µM
same,IC50,[1],< 0.005 µM
same,IC50,Aurora kinase A,> 100 µM
same,IC50,[2],< 0.005 µM
c1ccc(-c2ccc(CSc3nnc(-c4ccc5c(c4)OCO5)o3)cc2)cc1,Activity,Danio rerio,Non-toxic
same,IC50,[3],> 100 µM
same,IC50,[4],> 100 µM
same,IC50,[5],> 100 µM
same,IC50,[1],0.176 µM
same,IC50,Aurora kinase A,> 100 µM
same,IC50,[2],0.009 µM
N#Cc1cccc(CSc2nnc(-c3ccc4c(c3)OCCO4)o2)c1,Activity,Danio rerio,Non-toxic
same,IC50,[1],0.086 µM
same,IC50,[2],0.095 µM
COC(=O)c1ccc(CSc2nnc(-c3ccc4c(c3)OCO4)o2)cc1,Activity,Danio rerio,Non-toxic
COC(CNC(=O)c1ccc(CSc2nnc(-c3ccc4c(c3)OCCO4)o2)cc1)OC,Activity,Danio rerio,Non-toxic
N#Cc1ccccc1-c1ccc(CSc2nnc(-c3ccc4c(c3)OCO4)o2)cc1,Activity,Danio rerio,Non-toxic
same,IC50,[3],> 100 µM
same,IC50,[4],> 100 µM
same,IC50,[5],> 100 µM
same,IC50,[1],0.039 µM
same,IC50,Aurora kinase A,> 100 µM
same,IC50,[2],< 0.005 µM
N#Cc1ccc(-c2ccc(CSc3nnc(-c4ccc5c(c4)OCO5)o3)cc2)cc1,Activity,Danio rerio,Non-toxic
same,IC50,[3],> 100 µM
same,IC50,[4],> 100 µM
same,IC50,[5],60 µM
same,Stability,Liver microsomes,Stable
same,permeability,Caco-2,impermeable
same,IC50,Aurora kinase A,30 µM
same,solubility,[6],Insoluble
same,"logD at 1 h, 100 µM",[7],3.58
O=C(O)c1ccc(CSc2nnc(-c3ccc4c(c3)OCCO4)o2)cc1,Activity,Danio rerio,Non-toxic
N#Cc1ccc(CSc2nnc(-c3ccncc3)o2)cc1,Activity,Danio rerio,Non-toxic
same,IC50,[1],10 µM
same,IC50,[2],7.38 µM
O=C(NCc1ccccc1)c1ccc(CSc2nnc(-c3ccc4c(c3)OCCO4)o2)cc1,Activity,Danio rerio,Non-toxic
COC(CNC(=O)c1ccc(CSc2nnc(-c3ccc4c(c3)OCO4)o2)cc1)OC,Activity,Danio rerio,Non-toxic
CC(C)CNC(=O)c1ccc(CSc2nnc(-c3ccc4c(c3)OCO4)o2)cc1,Activity,Danio rerio,Non-toxic
N#Cc1ccc(CSc2nnc(-c3ccc4c(c3)OCO4)o2)cc1,Activity,Danio rerio,Non-toxic
same,IC50,[1],0.13 µM
same,IC50,[2],0.015 µM
COC[C@H]1COc2ccc(-c3nnc(SCc4ccc(-c5ccccc5C#N)cc4)o3)cc2O1,Activity,Danio rerio,Non-toxic
same,IC50,[3],> 100 µM
same,IC50,[4],> 100 µM
same,IC50,[5],> 100 µM
same,IC50,[1],0.129 µM
same,IC50,Aurora kinase A,> 100 µM
same,IC50,[2],0.015 µM
N#Cc1ccc(CSc2nnc(-c3ccc4c(c3)OCCO4)o2)cc1,Activity,Danio rerio,Non-toxic
same,IC50,[1],0.166 µM
same,IC50,[2],0.045 µM
COC(=O)c1ccc(CSc2nnc(-c3ccc4c(c3)OCCO4)o2)cc1,Activity,Danio rerio,Non-toxic
same,IC50,[3],> 100 µM
same,IC50,[4],> 100 µM
same,IC50,[5],> 100 µM
same,IC50,Aurora kinase A,> 100 µM
